Measurements from US7488712B2, “Histone deacetylase inhibitors and methods for producing the same” (Kyushu Institute of Technology, priority 2002, dated 2009).

Tests used:
human HDAC1 = target: T1, human HDAC1 (Homo sapiens, UniProt Q13547); experiment: In vitro HDAC inhibition activity, [3H]-acetylated histone substrate, HDAC1; assay type: biochemical; settings: Table 3
T1 construct: FLAG; made in house; host or cells: 293T cells (transient transfection, anti-FLAG immunoprecipitation, FLAG peptide elution)
T1 sequence (Q13547 whole entry): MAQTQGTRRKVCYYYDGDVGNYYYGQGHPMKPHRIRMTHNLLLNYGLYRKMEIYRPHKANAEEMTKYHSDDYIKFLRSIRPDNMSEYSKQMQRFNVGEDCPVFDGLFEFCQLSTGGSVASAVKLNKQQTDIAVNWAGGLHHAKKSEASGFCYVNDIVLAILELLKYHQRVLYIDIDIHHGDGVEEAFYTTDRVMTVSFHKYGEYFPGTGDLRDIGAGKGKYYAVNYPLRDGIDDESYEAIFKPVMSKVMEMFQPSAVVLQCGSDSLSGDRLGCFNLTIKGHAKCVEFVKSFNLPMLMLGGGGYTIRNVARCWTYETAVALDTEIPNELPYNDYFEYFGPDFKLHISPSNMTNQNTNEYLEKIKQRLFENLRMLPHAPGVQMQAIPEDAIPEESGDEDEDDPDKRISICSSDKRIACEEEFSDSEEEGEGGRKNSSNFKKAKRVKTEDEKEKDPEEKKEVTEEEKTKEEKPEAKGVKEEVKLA

human HDAC4 = target: T2, human HDAC4 (Homo sapiens, UniProt P56524); experiment: In vitro HDAC inhibition activity, [3H]-acetylated histone substrate, HDAC4; assay type: biochemical; settings: Table 3
T2 construct: FLAG; made in house; host or cells: 293T cells (transient transfection, anti-FLAG immunoprecipitation, FLAG peptide elution)
T2 sequence (O15379 whole entry partner): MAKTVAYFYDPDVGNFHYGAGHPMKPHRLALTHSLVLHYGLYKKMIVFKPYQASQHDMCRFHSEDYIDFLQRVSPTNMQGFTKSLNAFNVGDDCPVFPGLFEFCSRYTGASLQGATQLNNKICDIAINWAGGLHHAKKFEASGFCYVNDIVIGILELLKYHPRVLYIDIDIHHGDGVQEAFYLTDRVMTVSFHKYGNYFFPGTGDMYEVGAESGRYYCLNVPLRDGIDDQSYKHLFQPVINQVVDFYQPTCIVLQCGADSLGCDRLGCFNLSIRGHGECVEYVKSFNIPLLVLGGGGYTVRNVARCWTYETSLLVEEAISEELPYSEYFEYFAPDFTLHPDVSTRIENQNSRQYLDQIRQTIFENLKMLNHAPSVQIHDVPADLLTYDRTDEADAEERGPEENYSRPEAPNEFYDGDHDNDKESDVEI
T2 sequence (P56524 whole entry): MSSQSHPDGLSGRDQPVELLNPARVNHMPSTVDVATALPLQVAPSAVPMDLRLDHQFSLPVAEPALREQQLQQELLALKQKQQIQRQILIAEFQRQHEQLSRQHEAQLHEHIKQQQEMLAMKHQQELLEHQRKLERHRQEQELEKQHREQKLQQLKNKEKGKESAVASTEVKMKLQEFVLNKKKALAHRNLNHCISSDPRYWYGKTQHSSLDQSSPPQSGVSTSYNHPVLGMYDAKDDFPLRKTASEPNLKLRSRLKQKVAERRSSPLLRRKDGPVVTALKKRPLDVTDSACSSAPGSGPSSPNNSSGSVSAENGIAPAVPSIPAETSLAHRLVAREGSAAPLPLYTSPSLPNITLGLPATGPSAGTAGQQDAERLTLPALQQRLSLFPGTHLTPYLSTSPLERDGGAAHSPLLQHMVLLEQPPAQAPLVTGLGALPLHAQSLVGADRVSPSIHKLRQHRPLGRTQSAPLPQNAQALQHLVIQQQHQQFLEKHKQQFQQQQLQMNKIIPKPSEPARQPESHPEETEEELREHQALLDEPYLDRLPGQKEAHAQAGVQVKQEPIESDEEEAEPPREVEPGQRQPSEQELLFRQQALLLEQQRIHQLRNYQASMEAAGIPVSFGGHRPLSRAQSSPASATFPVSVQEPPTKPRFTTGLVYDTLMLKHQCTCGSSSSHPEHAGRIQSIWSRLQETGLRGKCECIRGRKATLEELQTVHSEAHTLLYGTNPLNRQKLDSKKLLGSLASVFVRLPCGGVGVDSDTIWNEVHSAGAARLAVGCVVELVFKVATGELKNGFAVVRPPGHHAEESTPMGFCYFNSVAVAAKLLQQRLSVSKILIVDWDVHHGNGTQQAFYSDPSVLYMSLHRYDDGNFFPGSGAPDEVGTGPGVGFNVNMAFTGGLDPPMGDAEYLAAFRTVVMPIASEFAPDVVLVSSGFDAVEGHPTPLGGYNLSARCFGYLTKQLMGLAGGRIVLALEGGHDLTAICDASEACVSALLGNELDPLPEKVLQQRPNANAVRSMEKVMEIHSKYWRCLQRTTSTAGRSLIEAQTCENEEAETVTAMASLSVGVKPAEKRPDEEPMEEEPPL

mouse HDAC6 = target: T3, mouse HDAC6 (Mus musculus, UniProt Q9Z2V5); experiment: In vitro HDAC inhibition activity, [3H]-acetylated histone substrate, HDAC6; assay type: biochemical; settings: Table 3
T3 construct: HA; made in house; host or cells: 293T cells (transient transfection, anti-HA immunoprecipitation, HA peptide elution)
T3 sequence (Q9Z2V5 1-1149): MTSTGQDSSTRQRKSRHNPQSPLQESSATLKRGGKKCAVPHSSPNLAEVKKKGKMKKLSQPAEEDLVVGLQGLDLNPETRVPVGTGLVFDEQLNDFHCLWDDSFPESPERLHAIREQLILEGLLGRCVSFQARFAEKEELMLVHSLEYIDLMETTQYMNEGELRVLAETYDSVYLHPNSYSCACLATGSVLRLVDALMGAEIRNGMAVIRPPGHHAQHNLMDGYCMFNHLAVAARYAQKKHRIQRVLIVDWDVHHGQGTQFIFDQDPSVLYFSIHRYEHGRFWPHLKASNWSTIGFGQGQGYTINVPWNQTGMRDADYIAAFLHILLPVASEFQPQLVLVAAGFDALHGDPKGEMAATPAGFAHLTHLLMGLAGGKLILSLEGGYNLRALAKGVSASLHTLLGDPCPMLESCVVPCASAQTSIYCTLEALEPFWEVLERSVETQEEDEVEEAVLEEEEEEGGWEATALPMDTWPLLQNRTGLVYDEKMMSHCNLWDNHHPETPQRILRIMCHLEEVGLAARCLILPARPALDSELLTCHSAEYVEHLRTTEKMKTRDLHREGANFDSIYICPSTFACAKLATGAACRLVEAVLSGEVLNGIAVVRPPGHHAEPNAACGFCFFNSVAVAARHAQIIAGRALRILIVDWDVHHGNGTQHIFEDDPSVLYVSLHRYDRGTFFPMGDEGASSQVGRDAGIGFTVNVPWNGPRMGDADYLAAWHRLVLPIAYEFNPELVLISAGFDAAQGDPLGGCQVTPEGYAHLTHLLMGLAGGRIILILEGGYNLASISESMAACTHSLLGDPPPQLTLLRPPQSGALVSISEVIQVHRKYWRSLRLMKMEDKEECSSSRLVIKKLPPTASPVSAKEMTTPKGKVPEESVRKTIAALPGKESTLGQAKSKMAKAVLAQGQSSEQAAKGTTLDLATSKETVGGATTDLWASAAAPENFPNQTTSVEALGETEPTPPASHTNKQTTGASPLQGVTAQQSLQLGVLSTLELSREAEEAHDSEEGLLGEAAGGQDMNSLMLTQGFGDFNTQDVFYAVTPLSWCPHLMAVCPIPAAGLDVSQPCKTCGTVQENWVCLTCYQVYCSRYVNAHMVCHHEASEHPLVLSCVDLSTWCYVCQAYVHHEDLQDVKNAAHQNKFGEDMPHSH

[1] = Stability in serum (FCS), read out by p21 promoter inducing activity; assay type: in vitro ADME; settings: FCS, 37° C.; activity at incubation time zero taken as 100%; FIG. 7
Method: The stability of SCOP 152, SCOP 304, and SCOP 402 in serum was evaluated by the method shown below: 1 μl of 10 mM SCOP 152, SCOP 304, and SCOP 402 was added to 99 μl FCS, and incubated at 37° C. Each hour, NaCl in a sufficient amount for saturation and 1 ml of ethyl acetate were added to each mixture. After extraction, from 800 μl of the ethyl acetate phase, the ethyl acetate was distilled off, and then 100 μl of DMSO was added to the residue. The resulting solution was further diluted ten times with DMSO and used to measure p21 promoter inducing activity. Activity at incubation time zero was taken as 100%, and activities were compared (FIG. 7).

CC[C@H](C)[C@@H]1NC(=O)[C@@H](Cc2ccc(OC)cc2)NC(=O)[C@H](CCCCCSSc2ccncc2)NC(=O)[C@H]2CCCN2C1=O [SCOP 402, cyclo(-L-Am7(S4Py)-D-Tyr(Me)-L-Ile-D-Pro-)]
IC50 (human HDAC1; hybrid with DTT (/DTT)): 0.553 nM | IC50 (human HDAC1; hybrid, without DTT): 6.76 nM | IC50 (human HDAC4; hybrid with DTT (/DTT)): 1.12 nM | IC50 (human HDAC4; hybrid, without DTT): 68.3 nM | IC50 (mouse HDAC6; hybrid with DTT (/DTT)): 2010 nM | IC50 (mouse HDAC6; hybrid, without DTT): 1610 nM | Retention of activity in serum [1]: stably retain activity in serum for longer than SCOP 152
